# From patent US20080274892A1, “Novel Haloalkylsulfonanilide Derivative, Herbicide, and Method of Use Thereof” (priority 2005, published 2008)
# Experiments:
# false pimpernel [1] = experiment: Test Example 1: herbicidal efficacy on rice paddy weeds pre-emergence; assay type: in vivo, Lindernia pyxidaria; details: dosage 1000 g/ha, 21 days
# [2] = system: transplanted paddy rice plant and Bulrush; experiment: Test Example 5: selectivity between transplanted paddy rice plant and weeds; assay type: in vivo; details: (highest dosage with no phytotoxicity to paddy rice)/(lowest dosage with effective level 4 on Bulrush); rice 3000-100 g/ha, Bulrush 300-10 g/ha; 21 days
# Method in brief: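 Transplanted paddy rice was treated at 3000, 1000, 300 and 100 g/ha active ingredient for phytotoxicity, and post-emergence bulrush at 300, 100, 30 and 10 g/ha. Plants were kept in a hothouse for 21 days. Growth inhibition versus untreated control was scored 0–4 (0%, 1–39%, 40–69%, 70–89%, 90–100%).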
# bulrush [3] = experiment: Test Example 4: low dosage test for rice paddy weeds; assay type: in vivo, Scirpus juncoides; details: 300 g/ha as an active ingredient; plants treated at the one leaf stage; 21 days after treatment; vs untreated control
# Method in brief: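 Bulrush sown in clay loam pots, flooded to 5 cm water in a hot house, treated at the one-leaf stage with formulated compound at 300 g/ha. Efficacy scored 0–4 against untreated control 21 days after treatment (4 = 90–100%, 0 = 0% inhibition).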
# bulrush [4] = experiment: Test Example 2: herbicidal efficacy on rice paddy weeds post-emergence; assay type: in vivo, Scirpus juncoides; details: dosage 1000 g/ha; post-emergence, one leaf stage; 21 days after treatment
# bulrush [5] = experiment: Test Example 1: herbicidal efficacy on rice paddy weeds pre-emergence; assay type: in vivo, Scirpus juncoides; details: dosage 1000 g/ha, 21 days
# barnyard glass = experiment: Test Example 2: herbicidal efficacy on rice paddy weeds post-emergence; assay type: in vivo, Echinochloa crus-galli; details: dosage 1000 g/ha; post-emergence, one leaf stage; 21 days after treatment
# Method in brief: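 Plastic pots of 75 cm^2 were filled with clay loam soil and sown with barnyard glass and bulrush seeds, then topped with 75 cm^3 soil containing false pimpernel seeds. The pots were flooded to 5 cm water depth and held in a hot house. Twenty-one days after treatment, herbicidal efficacy was graded against an untreated control.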
# [6] = system: paddy rice plant (cultivar: Nihonbare); experiment: Test Example 3: phytotoxicity test for transplanted paddy rice plant; assay type: in vivo; details: dosage 1000 g/ha; transplanted rice, treated 5 days after transplantation; 21 days after treatment
# Method in brief: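 Clay loam soil was placed in a 75 cm^2 plastic pot and flooded to a water depth of 5 cm. Two Nihonbare paddy rice plants at the two-leaf stage were transplanted 1 cm deep and grown in a hot house. After treatment, pots stayed in the hot house for 21 days, and phytotoxicity was then graded against an untreated control.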
# false pimpernel [7] = experiment: Test Example 2: herbicidal efficacy on rice paddy weeds post-emergence; assay type: in vivo, Lindernia pyxidaria; details: dosage 1000 g/ha; post-emergence, one leaf stage; 21 days after treatment
Structure (SMILES),False pimpernel pre (herbicidal efficacy grade) (false pimpernel [1]),Selective Index [2],Herbicide effect to Bulrush (bulrush [3]),Bulrush post (herbicidal efficacy grade) (bulrush [4]),Bulrush pre (herbicidal efficacy grade) (bulrush [5]),Burnyard grass post (herbicidal efficacy grade) (barnyard glass),Phytotoxicity to paddy rice [6],False pimpernel post (herbicidal efficacy grade) (false pimpernel [7])
COC(=O)N(c1ccccc1CN1CC(C)(C2CCCCC2)OC1=O)S(=O)(=O)C(F)(F)F (centres unmarked) [1-157],4 (90%-100% of herbicidal efficacy or phytotoxicity),3,3 (70%-89% of herbicidal efficacy or phytotoxicity),4 (90%-100% of herbicidal efficacy or phytotoxicity),4 (90%-100% of herbicidal efficacy or phytotoxicity),4 (90%-100% of herbicidal efficacy or phytotoxicity),1 (1%-39% of herbicidal efficacy or phytotoxicity),4 (90%-100% of herbicidal efficacy or phytotoxicity)
CC1(C2(C)CN(Cc3ccccc3NS(=O)(=O)C(F)(F)F)C(=O)O2)CC1 (centres unmarked) [1-167],4 (90%-100% of herbicidal efficacy or phytotoxicity),≧10,4 (90%-100% of herbicidal efficacy or phytotoxicity),4 (90%-100% of herbicidal efficacy or phytotoxicity),4 (90%-100% of herbicidal efficacy or phytotoxicity),4 (90%-100% of herbicidal efficacy or phytotoxicity),1 (1%-39% of herbicidal efficacy or phytotoxicity),4 (90%-100% of herbicidal efficacy or phytotoxicity)
CC(C)COC(=O)N(c1ccccc1CN1CC(C)(C2(C)CC2)OC1=O)S(=O)(=O)C(F)(F)F (centres unmarked) [1-168],4 (90%-100% of herbicidal efficacy or phytotoxicity),10,4 (90%-100% of herbicidal efficacy or phytotoxicity),4 (90%-100% of herbicidal efficacy or phytotoxicity),4 (90%-100% of herbicidal efficacy or phytotoxicity),4 (90%-100% of herbicidal efficacy or phytotoxicity),1 (1%-39% of herbicidal efficacy or phytotoxicity),4 (90%-100% of herbicidal efficacy or phytotoxicity)
COC(=O)N(c1ccccc1CN1CC(C)(C2(C)CC2)OC1=O)S(=O)(=O)C(F)(F)F (centres unmarked) [1-169],4 (90%-100% of herbicidal efficacy or phytotoxicity),10,4 (90%-100% of herbicidal efficacy or phytotoxicity),4 (90%-100% of herbicidal efficacy or phytotoxicity),4 (90%-100% of herbicidal efficacy or phytotoxicity),4 (90%-100% of herbicidal efficacy or phytotoxicity),1 (1%-39% of herbicidal efficacy or phytotoxicity),4 (90%-100% of herbicidal efficacy or phytotoxicity)
CC(C)COC(=O)N(c1ccccc1CN1CC(C2CC2)(C2CC2)OC1=O)S(=O)(=O)C(F)(F)F [1-171],4 (90%-100% of herbicidal efficacy or phytotoxicity),10,4 (90%-100% of herbicidal efficacy or phytotoxicity),4 (90%-100% of herbicidal efficacy or phytotoxicity),4 (90%-100% of herbicidal efficacy or phytotoxicity),4 (90%-100% of herbicidal efficacy or phytotoxicity),1 (1%-39% of herbicidal efficacy or phytotoxicity),4 (90%-100% of herbicidal efficacy or phytotoxicity)
CCC1(CC)CN(Cc2ccccc2NS(=O)(=O)C(F)(F)F)C(=S)O1 [1-178],4 (90%-100% of herbicidal efficacy or phytotoxicity),10,4 (90%-100% of herbicidal efficacy or phytotoxicity),4 (90%-100% of herbicidal efficacy or phytotoxicity),4 (90%-100% of herbicidal efficacy or phytotoxicity),4 (90%-100% of herbicidal efficacy or phytotoxicity),1 (1%-39% of herbicidal efficacy or phytotoxicity),4 (90%-100% of herbicidal efficacy or phytotoxicity)
CCC1(CC)CN(Cc2ccccc2N(C(=O)OCC(C)C)S(=O)(=O)C(F)(F)F)C(=S)O1 [1-179],4 (90%-100% of herbicidal efficacy or phytotoxicity),33.3,4 (90%-100% of herbicidal efficacy or phytotoxicity),4 (90%-100% of herbicidal efficacy or phytotoxicity),4 (90%-100% of herbicidal efficacy or phytotoxicity),4 (90%-100% of herbicidal efficacy or phytotoxicity),0 (0% of herbicidal efficacy or phytotoxicity),4 (90%-100% of herbicidal efficacy or phytotoxicity)
CCC1(C)CN(Cc2ccccc2N(C(=O)OCC(C)C)S(=O)(=O)C(F)(F)F)C(=S)O1 (centres unmarked) [1-181],4 (90%-100% of herbicidal efficacy or phytotoxicity),10,4 (90%-100% of herbicidal efficacy or phytotoxicity),4 (90%-100% of herbicidal efficacy or phytotoxicity),4 (90%-100% of herbicidal efficacy or phytotoxicity),4 (90%-100% of herbicidal efficacy or phytotoxicity),1 (1%-39% of herbicidal efficacy or phytotoxicity),4 (90%-100% of herbicidal efficacy or phytotoxicity)
CCC1(CC)CN(Cc2ccccc2N(C(=O)OC)S(=O)(=O)C(F)(F)F)C(=S)O1 [1-183],4 (90%-100% of herbicidal efficacy or phytotoxicity),10,4 (90%-100% of herbicidal efficacy or phytotoxicity),4 (90%-100% of herbicidal efficacy or phytotoxicity),4 (90%-100% of herbicidal efficacy or phytotoxicity),4 (90%-100% of herbicidal efficacy or phytotoxicity),1 (1%-39% of herbicidal efficacy or phytotoxicity),4 (90%-100% of herbicidal efficacy or phytotoxicity)
COC(=O)N(c1ccccc1CN1CC(C)(C)SC1=O)S(=O)(=O)C(F)(F)F [1-186],4 (90%-100% of herbicidal efficacy or phytotoxicity),10,4 (90%-100% of herbicidal efficacy or phytotoxicity),4 (90%-100% of herbicidal efficacy or phytotoxicity),4 (90%-100% of herbicidal efficacy or phytotoxicity),4 (90%-100% of herbicidal efficacy or phytotoxicity),1 (1%-39% of herbicidal efficacy or phytotoxicity),4 (90%-100% of herbicidal efficacy or phytotoxicity)
